Reference: PubChem BioAssay AID2060895 (Molecular Pharmacology Branch, DTP, NCI, 2025)

System: PDC 899932-113-R3-J6 complex spheroid viability
Assay: Anticancer human tumor 899932-113-R3-J6-PDC patient-derived melanoma cell line growth inhibition [RAS]
Settings: for IC50: curve of first compound; for viability, T/C: stronger effect = lower value; active = viability on the fitted dose curve at most 10% of control; inactive = the rest
How it was run: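 Agents were tested in combination matrices in half-log decrements from a top concentration at or near clinical Cmax (10 microM if undetermined). Targets were multi-cell spheroids of tumour lines plus HUVEC and MSC stromal cells.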
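Throughout, for viability, T/C: spheroids exposed to agents for seven days before readout; 100% = DMSO vehicle control wells.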

CC(=O)OC12COC1CC(O)C1(C)C(=O)C(O)C3=C(C)C(OC(=O)C(O)C(NC(=O)OC(C)(C)C)c4ccccc4)CC(O)(C(OC(=O)c4ccccc4)C21)C3(C)C (centres undefined) + CCn1c(-c2cc(N3CCN(C)CC3)cnc2C(C)OC)c2c3cc(ccc31)-c1csc(n1)CC(NC(=O)C1CC1C)C(=O)N1CCCC(N1)C(=O)OCC(C)(C)C2
< 31.6 nM: IC50 (second compound 0.000949 µM) | IC50 (second compound 0.003 µM) | IC50 (second compound 0.00949 µM) | IC50 (second compound 0.03 µM) | IC50 (second compound 0.0949 µM) | IC50 (second compound 0.3 µM)
active: viability, T/C (second compound 0.00949 µM, first compound 0.0316 µM) 3.98% | viability, T/C (second compound 0.00949 µM, first compound 0.1 µM) 3.52% | viability, T/C (second compound 0.00949 µM, first compound 0.316 µM) 3.63% | viability, T/C (second compound 0.00949 µM, first compound 1 µM) 3.09% | viability, T/C (second compound 0.00949 µM, first compound 3.16 µM) 3.96% | viability, T/C (second compound 0.00949 µM, first compound 10 µM) 4.11% | viability, T/C (second compound 0.03 µM, first compound 0.0316 µM) 2.05% | viability, T/C (second compound 0.03 µM, first compound 0.1 µM) 1.55% | viability, T/C (second compound 0.03 µM, first compound 0.316 µM) 1.79% | viability, T/C (second compound 0.03 µM, first compound 1 µM) 1.78% | viability, T/C (second compound 0.03 µM, first compound 3.16 µM) 1.72% | viability, T/C (second compound 0.03 µM, first compound 10 µM) 1.3% | viability, T/C (second compound 0.0949 µM, first compound 0.0316 µM) 1.14% | viability, T/C (second compound 0.0949 µM, first compound 0.1 µM) 1.02% | viability, T/C (second compound 0.0949 µM, first compound 0.316 µM) 1.61% | viability, T/C (second compound 0.0949 µM, first compound 1 µM) 0.79% | viability, T/C (second compound 0.0949 µM, first compound 3.16 µM) 0.68% | viability, T/C (second compound 0.0949 µM, first compound 10 µM) 0.72% | viability, T/C (second compound 0.3 µM, first compound 0.0316 µM) 1.95% | viability, T/C (second compound 0.3 µM, first compound 0.1 µM) 0.96% | viability, T/C (second compound 0.3 µM, first compound 0.316 µM) 1.47% | viability, T/C (second compound 0.3 µM, first compound 1 µM) 0.52% | viability, T/C (second compound 0.3 µM, first compound 3.16 µM) 0.57% | viability, T/C (second compound 0.3 µM, first compound 10 µM) 0.59%
inactive: viability, T/C (second compound 0.000949 µM, first compound 0.0316 µM) 18.6% | viability, T/C (second compound 0.000949 µM, first compound 0.1 µM) 18.4% | viability, T/C (second compound 0.000949 µM, first compound 0.316 µM) 26.5% | viability, T/C (second compound 0.000949 µM, first compound 1 µM) 36.3% | viability, T/C (second compound 0.000949 µM, first compound 3.16 µM) 45.5% | viability, T/C (second compound 0.000949 µM, first compound 10 µM) 47.2% | viability, T/C (second compound 0.003 µM, first compound 0.0316 µM) 8.34% | viability, T/C (second compound 0.003 µM, first compound 0.1 µM) 10.3% | viability, T/C (second compound 0.003 µM, first compound 0.316 µM) 12.4% | viability, T/C (second compound 0.003 µM, first compound 1 µM) 14.1% | viability, T/C (second compound 0.003 µM, first compound 3.16 µM) 18.3% | viability, T/C (second compound 0.003 µM, first compound 10 µM) 21.1%

CC(C)n1nc(-c2ccc3oc(N)nc3c2)c2c(N)ncnc21 + C#Cc1c(F)ccc2cc(O)cc(-c3ncc4c(N5CC6CCC(C5)N6)nc(OCC56CCCN5CC(F)C6)nc4c3F)c12
90.3 nM: IC50 (second compound 0.0316 µM)
> 100 nM: IC50 (second compound 0.1 µM) | IC50 (second compound 0.316 µM) | IC50 (second compound 1 µM) | IC50 (second compound 3.16 µM) | IC50 (second compound 10 µM)
inactive: viability, T/C (second compound 0.0316 µM, first compound 0.000316 µM) 104% | viability, T/C (second compound 0.0316 µM, first compound 0.001 µM) 100% | viability, T/C (second compound 0.0316 µM, first compound 0.00316 µM) 105% | viability, T/C (second compound 0.0316 µM, first compound 0.01 µM) 91.8% | viability, T/C (second compound 0.0316 µM, first compound 0.0316 µM) 68.2% | viability, T/C (second compound 0.0316 µM, first compound 0.1 µM) 48.1% | viability, T/C (second compound 0.1 µM, first compound 0.000316 µM) 114% | viability, T/C (second compound 0.1 µM, first compound 0.001 µM) 105% | viability, T/C (second compound 0.1 µM, first compound 0.00316 µM) 95.7% | viability, T/C (second compound 0.1 µM, first compound 0.01 µM) 100% | viability, T/C (second compound 0.1 µM, first compound 0.0316 µM) 73.4% | viability, T/C (second compound 0.1 µM, first compound 0.1 µM) 52.5% | viability, T/C (second compound 0.316 µM, first compound 0.000316 µM) 103% | viability, T/C (second compound 0.316 µM, first compound 0.001 µM) 97.6% | viability, T/C (second compound 0.316 µM, first compound 0.00316 µM) 115% | viability, T/C (second compound 0.316 µM, first compound 0.01 µM) 100% | viability, T/C (second compound 0.316 µM, first compound 0.0316 µM) 76.4% | viability, T/C (second compound 0.316 µM, first compound 0.1 µM) 50% | viability, T/C (second compound 1 µM, first compound 0.000316 µM) 104% | viability, T/C (second compound 1 µM, first compound 0.001 µM) 104% | viability, T/C (second compound 1 µM, first compound 0.00316 µM) 110% | viability, T/C (second compound 1 µM, first compound 0.01 µM) 96.5% | viability, T/C (second compound 1 µM, first compound 0.0316 µM) 75% | viability, T/C (second compound 1 µM, first compound 0.1 µM) 52.4% | viability, T/C (second compound 3.16 µM, first compound 0.000316 µM) 116% | viability, T/C (second compound 3.16 µM, first compound 0.001 µM) 128% | viability, T/C (second compound 3.16 µM, first compound 0.00316 µM) 118% | viability, T/C (second compound 3.16 µM, first compound 0.01 µM) 112% | viability, T/C (second compound 3.16 µM, first compound 0.0316 µM) 85.9% | viability, T/C (second compound 3.16 µM, first compound 0.1 µM) 51.6% | viability, T/C (second compound 10 µM, first compound 0.000316 µM) 115% | viability, T/C (second compound 10 µM, first compound 0.001 µM) 110% | viability, T/C (second compound 10 µM, first compound 0.00316 µM) 123% | viability, T/C (second compound 10 µM, first compound 0.01 µM) 115% | viability, T/C (second compound 10 µM, first compound 0.0316 µM) 85.8% | viability, T/C (second compound 10 µM, first compound 0.1 µM) 50.7%
